Publication PMC4979471 (Cell Death Discovery, 2015)
Read-outs that look alike come from different tables or passages of the source.

What was measured:
Test in all cases: Kinase selectivity, P33-radiolabeled assay
Format in all cases: biochemical
Conditions in all cases: 10 μM ATP
TYK2 = target: T1, TYK2 (Homo sapiens, UniProt P29597)
T1 construct: purchased Reaction Biology Corp
Summary of the method: (§1)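 Percent residual kinase activity versus DMSO is reported. Conditions: compound at 10 μM, ATP at 10 μM, n = 2.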

PKCiota = target: T2, PKCiota (Homo sapiens, UniProt P41743)
T2 construct: purchased Reaction Biology Corp
T2 sequence (P41743 1-596): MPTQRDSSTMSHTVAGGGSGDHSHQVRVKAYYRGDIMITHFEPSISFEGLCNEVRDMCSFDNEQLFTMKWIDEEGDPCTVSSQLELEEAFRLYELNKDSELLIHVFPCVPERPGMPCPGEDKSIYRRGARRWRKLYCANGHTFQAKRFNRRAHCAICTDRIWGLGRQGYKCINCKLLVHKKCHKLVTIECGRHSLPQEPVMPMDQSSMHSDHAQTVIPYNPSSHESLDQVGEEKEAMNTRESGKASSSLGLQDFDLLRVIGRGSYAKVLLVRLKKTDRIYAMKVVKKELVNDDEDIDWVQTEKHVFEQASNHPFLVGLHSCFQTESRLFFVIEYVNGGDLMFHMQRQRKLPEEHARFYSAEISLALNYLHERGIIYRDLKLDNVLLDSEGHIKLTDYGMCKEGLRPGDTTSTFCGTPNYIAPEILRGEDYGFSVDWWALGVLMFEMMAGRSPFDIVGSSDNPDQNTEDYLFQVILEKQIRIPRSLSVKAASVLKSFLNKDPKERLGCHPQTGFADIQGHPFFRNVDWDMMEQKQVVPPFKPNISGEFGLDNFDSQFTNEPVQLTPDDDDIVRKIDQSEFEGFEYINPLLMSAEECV
Summary of the method: as §1

RIPK2 = target: T3, RIPK2 (Homo sapiens, UniProt O43353)
T3 construct: purchased Reaction Biology Corp
T3 sequence (O43353 whole entry): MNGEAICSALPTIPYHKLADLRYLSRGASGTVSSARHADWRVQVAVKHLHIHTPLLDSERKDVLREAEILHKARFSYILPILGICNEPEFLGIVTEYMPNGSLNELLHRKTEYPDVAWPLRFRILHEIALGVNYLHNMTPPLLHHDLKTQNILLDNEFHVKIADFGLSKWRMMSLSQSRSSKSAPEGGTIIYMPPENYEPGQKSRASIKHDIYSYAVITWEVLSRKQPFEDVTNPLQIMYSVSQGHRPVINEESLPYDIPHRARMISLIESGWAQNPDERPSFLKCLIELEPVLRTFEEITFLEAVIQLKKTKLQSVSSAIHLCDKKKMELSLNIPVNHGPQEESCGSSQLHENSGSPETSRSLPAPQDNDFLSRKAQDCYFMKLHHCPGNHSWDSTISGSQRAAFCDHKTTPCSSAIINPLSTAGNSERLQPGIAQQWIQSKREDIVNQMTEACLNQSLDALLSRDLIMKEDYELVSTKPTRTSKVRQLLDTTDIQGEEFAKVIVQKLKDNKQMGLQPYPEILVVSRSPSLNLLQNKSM
Summary of the method: as §1

ALK2/ACVR1 = target: T4, ALK2/ACVR1 (Homo sapiens, UniProt Q04771)
T4 construct: purchased Reaction Biology Corp
T4 sequence (Q04771 21-509): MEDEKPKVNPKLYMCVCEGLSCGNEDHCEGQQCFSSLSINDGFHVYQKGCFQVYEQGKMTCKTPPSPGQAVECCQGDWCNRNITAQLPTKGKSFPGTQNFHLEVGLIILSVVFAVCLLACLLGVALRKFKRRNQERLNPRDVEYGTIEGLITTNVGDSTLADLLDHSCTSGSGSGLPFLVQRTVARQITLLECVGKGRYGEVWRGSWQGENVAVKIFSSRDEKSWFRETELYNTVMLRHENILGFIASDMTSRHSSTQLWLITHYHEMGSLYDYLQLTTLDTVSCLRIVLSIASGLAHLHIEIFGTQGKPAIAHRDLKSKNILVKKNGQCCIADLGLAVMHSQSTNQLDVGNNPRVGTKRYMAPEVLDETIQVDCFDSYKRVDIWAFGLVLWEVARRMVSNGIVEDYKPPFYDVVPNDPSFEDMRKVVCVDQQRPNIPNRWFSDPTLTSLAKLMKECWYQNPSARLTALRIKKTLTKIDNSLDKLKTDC
Summary of the method: as §1

PKA = target: T5, PKA (Homo sapiens, UniProt P17612)
T5 construct: purchased Reaction Biology Corp
Summary of the method: as §1

MUSK = target: T6, MUSK (Homo sapiens, UniProt O15146)
T6 construct: purchased Reaction Biology Corp
T6 sequence (O15146 24-869): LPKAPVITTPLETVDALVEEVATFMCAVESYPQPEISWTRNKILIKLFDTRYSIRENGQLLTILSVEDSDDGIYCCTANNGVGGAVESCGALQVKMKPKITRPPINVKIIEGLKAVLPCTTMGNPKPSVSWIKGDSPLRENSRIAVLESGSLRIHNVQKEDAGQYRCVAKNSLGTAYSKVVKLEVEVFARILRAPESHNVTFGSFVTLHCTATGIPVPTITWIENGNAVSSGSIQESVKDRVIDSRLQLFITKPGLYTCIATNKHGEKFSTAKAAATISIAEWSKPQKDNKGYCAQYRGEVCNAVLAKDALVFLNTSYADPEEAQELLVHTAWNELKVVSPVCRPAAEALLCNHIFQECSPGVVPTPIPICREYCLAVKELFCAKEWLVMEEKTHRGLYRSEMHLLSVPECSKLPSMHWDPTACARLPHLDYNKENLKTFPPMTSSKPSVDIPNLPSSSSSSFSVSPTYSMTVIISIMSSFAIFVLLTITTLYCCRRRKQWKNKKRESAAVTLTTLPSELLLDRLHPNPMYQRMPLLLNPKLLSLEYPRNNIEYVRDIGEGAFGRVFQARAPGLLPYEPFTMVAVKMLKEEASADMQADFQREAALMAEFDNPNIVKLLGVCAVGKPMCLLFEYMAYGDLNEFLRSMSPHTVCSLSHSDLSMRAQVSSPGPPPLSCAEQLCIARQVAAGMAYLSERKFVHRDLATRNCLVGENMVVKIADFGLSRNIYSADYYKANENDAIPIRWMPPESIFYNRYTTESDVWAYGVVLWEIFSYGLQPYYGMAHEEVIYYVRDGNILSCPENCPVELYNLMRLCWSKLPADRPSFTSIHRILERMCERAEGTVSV
Summary of the method: as §1

DYRK1/DYRK1A = target: T7, DYRK1/DYRK1A (Homo sapiens, UniProt Q13627)
T7 construct: purchased Reaction Biology Corp
Summary of the method: as §1

BLK = target: T8, BLK (Homo sapiens, UniProt P51451)
T8 construct: purchased Reaction Biology Corp
T8 sequence (P51451 whole entry): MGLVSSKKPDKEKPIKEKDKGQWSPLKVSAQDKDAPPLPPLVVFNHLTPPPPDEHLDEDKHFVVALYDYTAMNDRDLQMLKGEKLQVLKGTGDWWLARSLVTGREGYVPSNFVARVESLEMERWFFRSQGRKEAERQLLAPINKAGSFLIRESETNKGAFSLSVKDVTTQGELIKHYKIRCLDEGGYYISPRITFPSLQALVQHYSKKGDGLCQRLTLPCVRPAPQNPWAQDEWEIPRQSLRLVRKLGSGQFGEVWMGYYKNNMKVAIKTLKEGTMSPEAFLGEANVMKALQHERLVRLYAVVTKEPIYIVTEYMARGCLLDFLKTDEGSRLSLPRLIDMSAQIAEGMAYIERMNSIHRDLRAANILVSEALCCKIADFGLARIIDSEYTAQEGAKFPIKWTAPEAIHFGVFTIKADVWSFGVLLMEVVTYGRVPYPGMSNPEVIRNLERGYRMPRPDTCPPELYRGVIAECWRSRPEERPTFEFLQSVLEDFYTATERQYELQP
Summary of the method: as §1

ERBB2/HER2 = target: T9, ERBB2/HER2 (Homo sapiens, UniProt P04626)
T9 construct: purchased Reaction Biology Corp
T9 sequence (P04626 23-1255): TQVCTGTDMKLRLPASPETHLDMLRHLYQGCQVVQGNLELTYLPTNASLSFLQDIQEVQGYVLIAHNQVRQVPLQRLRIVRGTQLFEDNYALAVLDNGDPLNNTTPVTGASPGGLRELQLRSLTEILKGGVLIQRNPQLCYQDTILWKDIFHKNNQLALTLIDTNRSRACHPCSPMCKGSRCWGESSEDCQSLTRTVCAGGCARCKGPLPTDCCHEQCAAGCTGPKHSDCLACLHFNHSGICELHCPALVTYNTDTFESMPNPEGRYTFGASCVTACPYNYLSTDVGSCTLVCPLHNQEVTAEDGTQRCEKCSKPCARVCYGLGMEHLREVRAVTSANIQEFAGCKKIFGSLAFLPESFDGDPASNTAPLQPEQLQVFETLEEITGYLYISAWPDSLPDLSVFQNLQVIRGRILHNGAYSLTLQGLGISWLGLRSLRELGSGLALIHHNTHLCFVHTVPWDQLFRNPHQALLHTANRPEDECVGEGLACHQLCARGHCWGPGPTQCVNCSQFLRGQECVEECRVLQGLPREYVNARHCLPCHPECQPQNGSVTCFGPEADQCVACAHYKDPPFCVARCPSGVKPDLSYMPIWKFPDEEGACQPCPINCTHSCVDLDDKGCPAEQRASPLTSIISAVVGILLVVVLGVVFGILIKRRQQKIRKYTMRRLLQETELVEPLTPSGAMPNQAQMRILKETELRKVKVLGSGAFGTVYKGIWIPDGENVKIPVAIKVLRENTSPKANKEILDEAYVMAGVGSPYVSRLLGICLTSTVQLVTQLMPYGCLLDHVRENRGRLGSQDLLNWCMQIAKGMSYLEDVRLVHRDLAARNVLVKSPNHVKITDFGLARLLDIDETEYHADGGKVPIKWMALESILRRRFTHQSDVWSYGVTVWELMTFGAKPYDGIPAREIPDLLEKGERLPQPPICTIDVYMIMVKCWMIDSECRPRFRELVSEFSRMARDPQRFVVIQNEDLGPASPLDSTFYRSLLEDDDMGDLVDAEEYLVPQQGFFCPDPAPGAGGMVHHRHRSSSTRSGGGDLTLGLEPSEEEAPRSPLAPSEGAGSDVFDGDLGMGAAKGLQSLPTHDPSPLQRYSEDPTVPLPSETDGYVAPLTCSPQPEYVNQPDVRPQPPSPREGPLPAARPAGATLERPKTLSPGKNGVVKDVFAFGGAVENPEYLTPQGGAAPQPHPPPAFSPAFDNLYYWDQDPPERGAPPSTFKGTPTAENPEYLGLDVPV
Summary of the method: as §1

MST3/STK24 = target: T10, MST3/STK24 (Homo sapiens, UniProt Q9Y6E0)
T10 construct: purchased Reaction Biology Corp
T10 sequence (Q9Y6E0 whole entry): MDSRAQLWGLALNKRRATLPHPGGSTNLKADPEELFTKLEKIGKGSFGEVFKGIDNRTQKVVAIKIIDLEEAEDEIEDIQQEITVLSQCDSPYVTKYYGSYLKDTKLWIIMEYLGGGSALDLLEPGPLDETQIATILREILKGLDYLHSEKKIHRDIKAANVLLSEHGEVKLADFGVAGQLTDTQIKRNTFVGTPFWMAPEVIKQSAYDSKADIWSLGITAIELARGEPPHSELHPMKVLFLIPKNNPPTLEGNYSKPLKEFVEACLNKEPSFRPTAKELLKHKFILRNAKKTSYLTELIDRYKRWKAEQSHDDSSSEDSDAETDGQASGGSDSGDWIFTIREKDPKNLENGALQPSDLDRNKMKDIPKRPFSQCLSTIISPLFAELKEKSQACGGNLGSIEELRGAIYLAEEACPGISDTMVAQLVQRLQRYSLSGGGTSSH
Summary of the method: as §1

DMPK2 = target: T11, DMPK2 (Homo sapiens, UniProt Q6DT37)
T11 construct: purchased Reaction Biology Corp
Summary of the method: as §1

[1] = read-out: % Enzyme Activity (relative to DMSO controls) AVG
[2] = read-out: % Enzyme Activity (relative to DMSO controls) Data 1
[3] = read-out: % Enzyme Activity (relative to DMSO controls) Data 2

T1 sequence (P29597 whole entry): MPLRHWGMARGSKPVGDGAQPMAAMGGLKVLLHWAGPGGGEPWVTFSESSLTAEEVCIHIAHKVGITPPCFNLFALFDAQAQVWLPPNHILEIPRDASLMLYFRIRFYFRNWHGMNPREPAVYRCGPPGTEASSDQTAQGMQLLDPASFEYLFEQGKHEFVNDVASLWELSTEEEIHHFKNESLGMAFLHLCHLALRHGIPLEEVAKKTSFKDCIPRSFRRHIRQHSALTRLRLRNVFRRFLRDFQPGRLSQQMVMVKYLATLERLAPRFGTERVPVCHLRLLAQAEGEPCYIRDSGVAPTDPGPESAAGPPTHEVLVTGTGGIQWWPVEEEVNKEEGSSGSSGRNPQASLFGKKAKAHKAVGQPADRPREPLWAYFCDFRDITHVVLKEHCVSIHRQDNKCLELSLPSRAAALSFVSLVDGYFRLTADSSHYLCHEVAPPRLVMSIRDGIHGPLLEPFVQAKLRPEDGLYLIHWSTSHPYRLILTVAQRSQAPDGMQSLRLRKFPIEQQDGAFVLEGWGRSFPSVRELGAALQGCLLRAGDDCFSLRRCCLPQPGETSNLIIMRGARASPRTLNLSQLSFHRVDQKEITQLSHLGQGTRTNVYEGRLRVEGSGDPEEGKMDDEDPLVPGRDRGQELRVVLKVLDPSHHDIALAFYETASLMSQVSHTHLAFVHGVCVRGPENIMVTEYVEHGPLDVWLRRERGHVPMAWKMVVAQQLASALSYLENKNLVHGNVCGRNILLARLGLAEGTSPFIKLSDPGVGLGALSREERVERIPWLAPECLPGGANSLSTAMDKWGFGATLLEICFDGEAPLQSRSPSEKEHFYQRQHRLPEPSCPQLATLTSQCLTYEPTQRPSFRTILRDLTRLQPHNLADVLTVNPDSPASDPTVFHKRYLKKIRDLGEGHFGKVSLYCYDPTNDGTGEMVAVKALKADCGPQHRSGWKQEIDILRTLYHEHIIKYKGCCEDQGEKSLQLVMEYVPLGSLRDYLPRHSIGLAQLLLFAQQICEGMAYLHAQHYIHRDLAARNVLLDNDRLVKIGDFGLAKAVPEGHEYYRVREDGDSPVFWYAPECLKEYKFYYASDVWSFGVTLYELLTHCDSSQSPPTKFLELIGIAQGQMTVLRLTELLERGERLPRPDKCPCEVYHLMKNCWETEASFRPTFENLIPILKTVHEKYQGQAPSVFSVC

SMILES: CC(C)(C)C(=O)N1N=CC[C@H]1c1ccccc1 [GSK′963]
- remaining activity at 10 µM (TYK2; [1]): 103%
- remaining activity at 10 µM (TYK2; [2]): 104%
- remaining activity at 10 µM (TYK2; [3]): 101%
- remaining activity at 10 µM (PKCiota; [1]): 109%
- remaining activity at 10 µM (PKCiota; [2]): 105%
- remaining activity at 10 µM (PKCiota; [3]): 114%
- remaining activity at 10 µM (RIPK2; [1]): 110%
- remaining activity at 10 µM (RIPK2; [2]): 108%
- remaining activity at 10 µM (RIPK2; [3]): 112%
- remaining activity at 10 µM (ALK2/ACVR1; [1]): 98.1%
- remaining activity at 10 µM (ALK2/ACVR1; [2]): 94%
- remaining activity at 10 µM (ALK2/ACVR1; [3]): 102%
- remaining activity at 10 µM (PKA; [1]): 110%
- remaining activity at 10 µM (PKA; [2]): 112%
- remaining activity at 10 µM (PKA; [3]): 107%
- remaining activity at 10 µM (MUSK; [1]): 99.9%
- remaining activity at 10 µM (MUSK; [2]): 99.2%
- remaining activity at 10 µM (MUSK; [3]): 100%
- remaining activity at 10 µM (DYRK1/DYRK1A; [1]): 103%
- remaining activity at 10 µM (DYRK1/DYRK1A; [2]): 103%
- remaining activity at 10 µM (DYRK1/DYRK1A; [3]): 103%
- remaining activity at 10 µM (BLK; [1]): 113%
- remaining activity at 10 µM (BLK; [2]): 112%
- remaining activity at 10 µM (BLK; [3]): 113%
- remaining activity at 10 µM (ERBB2/HER2; [1]): 105%
- remaining activity at 10 µM (ERBB2/HER2; [2]): 102%
- remaining activity at 10 µM (ERBB2/HER2; [3]): 107%
- remaining activity at 10 µM (MST3/STK24; [1]): 87.4%
- remaining activity at 10 µM (MST3/STK24; [2]): 87.3%
- remaining activity at 10 µM (MST3/STK24; [3]): 87.5%
- remaining activity at 10 µM (DMPK2; [1]): 139%
- remaining activity at 10 µM (DMPK2; [2]): 140%
- remaining activity at 10 µM (DMPK2; [3]): 139%
